# In ChEMBL document CHEMBL4765227, “Hit to lead optimization of a series of N-[4-(1,3-benzothiazol-2-yl)phenyl]acetamides as monoacylglycerol lipase inhibitors with potential anticancer activity” (Eur J Med Chem, 2016):
# Columns and labels:
# Assay type in all cases: functional
# HCC 2998 = test: Growth inhibition of human HCC 2998 cells incubated for 48 hrs by sulforhodamine B assay
# OVCAR-3 = test: Growth inhibition of human OVCAR-3 cells incubated for 48 hrs by sulforhodamine B assay
# SW-620 = test: Growth inhibition of human SW-620 cells incubated for 48 hrs by sulforhodamine B assay
# M14 = test: Growth inhibition of human M14 cells incubated for 48 hrs by sulforhodamine B assay
# HL-60(TB) = test: Growth inhibition of human HL-60(TB) cells incubated for 48 hrs by sulforhodamine B assay
# SF-268 = test: Growth inhibition of human SF-268 cells incubated for 48 hrs by sulforhodamine B assay
# OVCAR-5 = test: Growth inhibition of human OVCAR-5 cells incubated for 48 hrs by sulforhodamine B assay
# HOP-62 = test: Growth inhibition of human HOP-62 cells incubated for 48 hrs by sulforhodamine B assay
# OVCAR-8 = test: Growth inhibition of human OVCAR-8 cells incubated for 48 hrs by sulforhodamine B assay
# OVCAR-4 = test: Growth inhibition of human OVCAR-4 cells incubated for 48 hrs by sulforhodamine B assay
# UACC-257 = test: Growth inhibition of human UACC-257 cells incubated for 48 hrs by sulforhodamine B assay
# IGROV-1 = test: Growth inhibition of human IGROV-1 cells incubated for 48 hrs by sulforhodamine B assay
# RXF 393 = test: Growth inhibition of human RXF 393 cells incubated for 48 hrs by sulforhodamine B assay
# Hs-578T = test: Growth inhibition of human Hs-578T cells incubated for 48 hrs by sulforhodamine B assay
# SK-MEL-5 = test: Growth inhibition of human SK-MEL-5 cells incubated for 48 hrs by sulforhodamine B assay
# MCF7 = test: Growth inhibition of human MCF7 cells incubated for 48 hrs by sulforhodamine B assay
# SK-MEL-28 = test: Growth inhibition of human SK-MEL-28 cells incubated for 48 hrs by sulforhodamine B assay
# NCI-H460 = test: Growth inhibition of human NCI-H460 cells incubated for 48 hrs by sulforhodamine B assay
# A549 = test: Growth inhibition of human A549/ATCC cells incubated for 48 hrs by sulforhodamine B assay
# NCI-H522 = test: Growth inhibition of human NCI-H522 cells incubated for 48 hrs by sulforhodamine B assay
# SN12C = test: Growth inhibition of human SN12C cells incubated for 48 hrs by sulforhodamine B assay
# K562 = test: Growth inhibition of human K562 cells incubated for 48 hrs by sulforhodamine B assay
# A498 = test: Growth inhibition of human A498 cells incubated for 48 hrs by sulforhodamine B assay
# LOX IMVI = test: Growth inhibition of human LOX IMVI cells incubated for 48 hrs by sulforhodamine B assay
# MDA-MB-435 = test: Growth inhibition of human MDA-MB-435 cells incubated for 48 hrs by sulforhodamine B assay
# HCT-15 = test: Growth inhibition of human HCT-15 cells incubated for 48 hrs by sulforhodamine B assay
# DU-145 = test: Growth inhibition of human DU-145 cells incubated for 48 hrs by sulforhodamine B assay
# SK-OV-3 = test: Growth inhibition of human SK-OV-3 cells incubated for 48 hrs by sulforhodamine B assay
# KM12 = test: Growth inhibition of human KM12 cells incubated for 48 hrs by sulforhodamine B assay
# SF-295 = test: Growth inhibition of human SF-295 cells incubated for 48 hrs by sulforhodamine B assay
# CAKI-1 = test: Growth inhibition of human CAKI-1 cells incubated for 48 hrs by sulforhodamine B assay
# SK-MEL-2 = test: Growth inhibition of human SK-MEL-2 cells incubated for 48 hrs by sulforhodamine B assay
# MOLT-4 = test: Growth inhibition of human MOLT-4 cells incubated for 48 hrs by sulforhodamine B assay
# HCT-116 = test: Growth inhibition of human HCT-116 cells incubated for 48 hrs by sulforhodamine B assay
# TK-10 = test: Growth inhibition of human TK-10 cells incubated for 48 hrs by sulforhodamine B assay
# [1] = read-out: LC50 (the source's name)
smiles,measurement,setting,value
O=C(CNc1c(Cl)cccc1Cl)Nc1ccc(-c2nc3ccccc3s2)cc1,GI50,HCC 2998,1.89 µM
same,TGI,HCC 2998,3.56 µM
same,CC50,HCC 2998; [1],6.68 µM
same,GI50,OVCAR-3,1.81 µM
same,LC50,OVCAR-3,5.79 µM
same,TGI,OVCAR-3,3.24 µM
same,GI50,SW-620,2.01 µM
same,LC50 (concentration killing 50% of cells),SW-620,9.85 µM
same,TGI,SW-620,4.45 µM
same,GI50,M14,2.2 µM
same,TGI,M14,6.55 µM
same,CC50,M14; [1],60.1 µM
same,GI50,HL-60(TB),2.43 µM
same,TGI,HL-60(TB),8.38 µM
same,CC50,HL-60(TB); [1],> 100 µM
same,GI50,SF-268,1.99 µM
same,LC50,SF-268,9.52 µM
same,TGI,SF-268,4.35 µM
same,GI50,OVCAR-5,1.92 µM
same,LC50 (concentration killing 50% of cells),OVCAR-5,9.53 µM
same,TGI,OVCAR-5,4.28 µM
same,GI50,HOP-62,3.31 µM
same,TGI,HOP-62,11.8 µM
same,CC50,HOP-62; [1],77.8 µM
same,GI50,OVCAR-8,2.64 µM
same,LC50,OVCAR-8,> 100 µM
same,TGI,OVCAR-8,8.9 µM
same,GI50,OVCAR-4,1.68 µM
same,LC50,OVCAR-4,9.74 µM
same,TGI,OVCAR-4,4.05 µM
same,GI50,UACC-257,3.61 µM
same,LC50,UACC-257,63.1 µM
same,TGI,UACC-257,11.9 µM
same,GI50,IGROV-1,1.92 µM
same,TGI,IGROV-1,4.33 µM
same,CC50,IGROV-1; [1],9.73 µM
same,GI50,RXF 393,1.63 µM
same,LC50 (concentration killing 50% of cells),RXF 393,7.27 µM
same,TGI,RXF 393,3.44 µM
same,GI50,Hs-578T,5.58 µM
same,LC50,Hs-578T,> 100 µM
same,TGI,Hs-578T,69.3 µM
same,GI50,SK-MEL-5,1.43 µM
same,LC50 (50% lethal concentration),SK-MEL-5,5.88 µM
same,TGI,SK-MEL-5,2.9 µM
same,GI50,MCF7,0.0371 µM
same,LC50,MCF7,39.8 µM
same,TGI,MCF7,2.49 µM
same,GI50,SK-MEL-28,1.8 µM
same,LC50,SK-MEL-28,7.47 µM
same,TGI,SK-MEL-28,3.67 µM
same,GI50,NCI-H460,3.36 µM
same,TGI,NCI-H460,12.4 µM
same,CC50,NCI-H460; [1],43 µM
same,GI50,A549,3.65 µM
same,TGI,A549,16.9 µM
same,CC50,A549; [1],> 100 µM
same,GI50,NCI-H522,1.29 µM
same,LC50 (50% lethal concentration),NCI-H522,7.58 µM
same,TGI,NCI-H522,3.13 µM
same,GI50,SN12C,2.49 µM
same,LC50,SN12C,86.1 µM
same,TGI,SN12C,8.08 µM
same,GI50,K562,2.86 µM
same,LC50,K562,> 100 µM
same,TGI,K562,11.5 µM
same,GI50,A498,13.8 µM
same,TGI,A498,26.9 µM
same,CC50,A498; [1],52.4 µM
same,GI50,LOX IMVI,1.19 µM
same,LC50,LOX IMVI,6.03 µM
same,TGI,LOX IMVI,2.68 µM
same,GI50,MDA-MB-435,2.6 µM
same,LC50,MDA-MB-435,99.6 µM
same,TGI,MDA-MB-435,11.3 µM
same,GI50,HCT-15,1.58 µM
same,TGI,HCT-15,4.5 µM
same,CC50,HCT-15; [1],53.7 µM
same,GI50,DU-145,3.33 µM
same,LC50 (concentration killing 50% of cells),DU-145,32.2 µM
same,TGI,DU-145,10.4 µM
same,GI50,SK-OV-3,5.84 µM
same,LC50 (concentration killing 50% of cells),SK-OV-3,> 100 µM
same,TGI,SK-OV-3,50.9 µM
same,GI50,KM12,2.47 µM
same,LC50 (concentration killing 50% of cells),KM12,22.3 µM
same,TGI,KM12,6.17 µM
same,GI50,SF-295,15.3 µM
same,LC50 (concentration causing 50% net cell kill),SF-295,60.5 µM
same,TGI,SF-295,30.4 µM
same,GI50,CAKI-1,2.3 µM
same,LC50 (concentration killing 50% of cells),CAKI-1,27.4 µM
same,TGI,CAKI-1,6.71 µM
same,GI50,SK-MEL-2,4.14 µM
same,"LC50 (lethal concentration, 50% cell kill)",SK-MEL-2,> 100 µM
same,TGI,SK-MEL-2,18.8 µM
same,GI50,MOLT-4,1.05 µM
same,LC50,MOLT-4,> 100 µM
same,TGI,MOLT-4,7.43 µM
same,GI50,HCT-116,2.14 µM
same,TGI,HCT-116,6.14 µM
same,CC50,HCT-116; [1],29 µM
same,GI50,TK-10,2.15 µM
same,LC50,TK-10,18.3 µM
same,TGI,TK-10,5.41 µM
